# Entries after “also recorded” stand apart in the source; their conditions may differ.
# Legend:
# [1] = parameters: species or system BALB/c mice; settings: mouse, in vivo
# Excerpt: Each group contained 5 mice.
# CXCL1 [2] = experiment: Mouse RV1B infection with fluticasone propionate: CXCL1 in BAL by ELISA; format: in vivo, BALB/c mice; settings: 2 pmol INNA-006, with or without FP; day 2 p.i.
# TNF-α = experiment: Mouse RV1B infection with fluticasone propionate: TNF-α in BAL by ELISA; format: in vivo, BALB/c mice
# [3] = system: other TLR pattern recognition receptors; experiment: TLR panel NF-κB SEAP reporter in HEK293 cells: other TLRs; format: cell-based; settings: human and mouse TLR panels
# Description: (§1) INNA-006 was assessed for its ability to activate a range of other TLR pattern recognition receptors. These assessments were conducted using both human and mouse TLR panels. These assays detect a secreted embryonic alkaline phosphatase (SEAP) reporter under the control of a promoter which is inducible by NF-κB activation in HEK293 cells. The secreted embryonic alkaline phosphatase (SEAP) reporter is under the control of a promoter inducible by the transcription factor NF-κB. This reporter gene allows the monitoring of signaling through the TLR, based on the activation of NF-κB. In a 96-well plate (200 μL total volume) containing the appropriate cells (50,000-75,000 cells/well), 20 μL of the test article or the positive control ligand is added to the wells. The media added to the wells is designed for the detection of NF-κB induced SEAP expression. After a 16-24 hr incubation the optical density (OD) is read at 650 nm on a Molecular Devices SpectraMax 340PC absorbance detector.
# BAL inflammatory cells [4] = experiment: Mouse RV1B infection model: BAL cell analysis
# Description: Following sacrifice, mice were tracheally cannulated and 1 ml of Hanks buffered saline solution (Hyclone™, GE Life Sciences) flushed through the airways, 3-5 times. BAL cells were pelleted by centrifugation and supernatant was collected and stored at −80° C. for ELISAs. The pelleted cells were red blood cells lysed and the remaining cells were counted on a heamocytometer by trypan blue exclusion. Cell suspensions were then cytocentrifuged onto slides and fixed and stained with Diff Quick (POCD) solutions as per manufacturer's recommendations. A minimum of 200 total cells were counted per slide and numbers of neutrophils, lymphocytes, and macrophages were determined.
# TNFα = experiment: Mouse RV1B infection model: TNFα in BAL by ELISA
# Description: (§2) Remaining lung lobes we snap frozen in liquid nitrogen, homogenised in 600 μl PBS containing protease inhibitors (Roche) by TissueLyser II run twice at 30 Hz for 4 minutes. Cell debris was pelleted by centrifugation, samples were diluted 1:2 with PBS and stored at −80° C. BAL fluid was then analysed for production of KC/IL-8 (CXCL1) and TNF-α by Duoset ELISA (R&D Systems) as per manufacturer's instructions.
# CXCL1 [5] = experiment: Mouse RV1B infection model: CXCL1 in BAL by ELISA
# Description: as §2
# [6] = system: Rhinovirus serotype 1B (RV1B); experiment: Mouse RV1B infection model: lung viral RNA by qPCR; settings: for lung viral load: day +1
# TLR-2 = TLR-2 (Homo sapiens, UniProt O60603); experiment: TLR panel NF-κB SEAP reporter in HEK293 cells: TLR-2; format: cell-based; parameters: expressed in transfected cells; host or cells: HEK293; settings: human and mouse TLR panels, FIG. 21
# Sequence of TLR-2 (O60603 21-784): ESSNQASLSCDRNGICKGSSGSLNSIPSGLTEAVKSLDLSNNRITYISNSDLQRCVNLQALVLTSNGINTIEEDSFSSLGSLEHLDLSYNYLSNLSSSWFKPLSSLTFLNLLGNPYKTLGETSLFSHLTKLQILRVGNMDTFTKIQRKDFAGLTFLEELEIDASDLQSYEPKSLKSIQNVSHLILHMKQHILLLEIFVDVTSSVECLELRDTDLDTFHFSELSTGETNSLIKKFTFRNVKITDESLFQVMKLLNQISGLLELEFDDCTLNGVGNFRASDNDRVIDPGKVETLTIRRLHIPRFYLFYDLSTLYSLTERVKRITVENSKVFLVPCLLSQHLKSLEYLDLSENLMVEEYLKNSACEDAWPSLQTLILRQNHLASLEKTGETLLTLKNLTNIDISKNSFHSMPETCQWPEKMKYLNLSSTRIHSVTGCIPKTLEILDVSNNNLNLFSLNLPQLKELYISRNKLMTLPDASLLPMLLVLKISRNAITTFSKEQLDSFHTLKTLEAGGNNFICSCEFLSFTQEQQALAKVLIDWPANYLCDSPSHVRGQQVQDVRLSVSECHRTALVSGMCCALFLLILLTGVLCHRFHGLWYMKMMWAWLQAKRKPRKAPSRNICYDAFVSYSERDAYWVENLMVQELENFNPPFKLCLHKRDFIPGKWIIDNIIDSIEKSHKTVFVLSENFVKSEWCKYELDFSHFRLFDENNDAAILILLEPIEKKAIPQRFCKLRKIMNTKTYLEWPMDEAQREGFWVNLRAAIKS
# Sequence of TLR-2 (Q9Y2C9 32-796 partner): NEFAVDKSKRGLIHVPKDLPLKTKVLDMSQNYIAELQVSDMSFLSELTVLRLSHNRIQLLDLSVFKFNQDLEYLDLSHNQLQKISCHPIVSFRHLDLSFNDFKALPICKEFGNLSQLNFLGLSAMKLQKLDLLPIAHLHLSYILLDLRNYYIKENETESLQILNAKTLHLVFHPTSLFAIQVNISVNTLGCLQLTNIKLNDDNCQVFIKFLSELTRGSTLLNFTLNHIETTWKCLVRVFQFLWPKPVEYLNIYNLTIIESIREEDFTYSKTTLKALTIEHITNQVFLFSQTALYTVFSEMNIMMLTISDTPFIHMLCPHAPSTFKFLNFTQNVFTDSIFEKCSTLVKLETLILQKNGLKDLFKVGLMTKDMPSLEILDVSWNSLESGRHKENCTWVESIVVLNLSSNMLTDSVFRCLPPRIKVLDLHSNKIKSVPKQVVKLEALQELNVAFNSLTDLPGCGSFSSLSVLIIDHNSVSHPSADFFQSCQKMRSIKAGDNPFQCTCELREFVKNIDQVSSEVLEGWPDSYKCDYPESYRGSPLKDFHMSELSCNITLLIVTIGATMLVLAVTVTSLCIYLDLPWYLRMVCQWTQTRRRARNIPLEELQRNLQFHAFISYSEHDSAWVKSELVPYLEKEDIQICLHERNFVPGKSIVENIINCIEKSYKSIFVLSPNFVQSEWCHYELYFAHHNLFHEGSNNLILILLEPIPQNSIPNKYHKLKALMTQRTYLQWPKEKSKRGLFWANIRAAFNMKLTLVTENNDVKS
# Description: as §1
# BAL inflammatory cells [7] = experiment: Mouse RV1B infection with fluticasone propionate: BAL cell analysis
# Description: Following sacrifice, mice were tracheally cannulated and 1 ml of Hanks buffered saline solution (Hyclone™, GE Life Sciences) flushed through the airways, 3-5 times. BAL cells were pelleted by centrifugation and supernatant was collected and stored at −80° C. for ELISAs. The pelleted cells were red blood cells lysed and the remaining cells were counted on a heamocytometer by trypan blue exclusion. Cell suspensions were then cytocentrifuged onto slides and fixed and stained with Diff Quick (POCD) solutions as per manufacturers recommendations. A minimum of 200 total cells were counted per slide and numbers of neutrophils, lymphocytes, and macrophages were determined.
# RV1B = RV1B infection of ALI-differentiated BCi-NS1 cells: viral RNA by qPCR; settings: 20 nM and 2 nM pre-treatment 24 h; 96 h post infection; vs control
# [8] = system: Rhinovirus serotype 1B (RV1B); experiment: Mouse RV1B infection with fluticasone propionate: lung viral RNA by qPCR
# [9] = Study 1G: lowest doses (2 pmole and 1 pmole) day +1, listed as Peg-S-Pam2Cys
structure (smiles),measurement,setting,value
"CCC(=O)OCC(CSCC(N)C(=O)NC(CO)C(=O)NCCOCC(=O)NCC(N)=O)OC(=O)CC (stereo not drawn) [INNA-006, Pam2Cys-Ser-PEG]",weight loss,[1],weight loss at the higher doses
same,weight loss after second dose,[1],no weight loss observed
same,CXCL1 in BAL,CXCL1 [2],neutrophil chemokine production supressed; also recorded: supressed CXCL1 production; also recorded: drastically reduced levels of mouse neutrophil chemokine CXCL1; also recorded: highly effective at suppressing CXCL1 expression
same,TNF-α in BAL,TNF-α; repeated doses (D-7 & D-1),not observed
same,TNF-α in BAL,TNF-α; single 2 pmol dose seven days prior to infection,significant TNF-α production in BAL
same,activation of other TLRs (SEAP reporter),[3],no activation of any other TLR tested
same,RV-induced BAL neutrophilic inflammation,"BAL inflammatory cells [4]; Study 1E: day −7, day 2 p.i., listed as Peg-S-Pam2Cys",reduced RV-induced BAL neutrophilic inflammation; also recorded: reduced RV-induced neutrohillic inflammation; also recorded: significantly reduced neutrophilic inflammation
same,BAL macrophages,"BAL inflammatory cells [4]; Study 1F: 2 pmol day −7, mock",higher numbers of macrophages compared to its saline mock control group
same,BAL lymphocytes,"BAL inflammatory cells [4]; Study 1F: 2 pmol, day −7, day −1 or both",promoted lymphocyte recruitment in the BAL
same,total BAL leukocytes in RV1B infected mice,"BAL inflammatory cells [4]; Study 1F: 2 pmol, vs Saline RV",did not induce significantly higher leukocyte recruitment
same,total BAL leukocytes in mock infected mice,"BAL inflammatory cells [4]; Study 1F: 2 pmol, vs Saline mock",Total leukocytes were increased
same,neutrophilic response in uninfected mice,BAL inflammatory cells [4]; Study 1F: three days after dosing (d-1 groups),not Peg-S-Pam2Cys
same,BAL lymphocytes,BAL inflammatory cells [4]; Study 1G: day +1 treatment,no changes to lymphocyte numbers
same,BAL macrophages,BAL inflammatory cells [4]; Study 1G: day +1 treatment,significantly reducing macrophage numbers
same,total BAL leucocyte numbers,BAL inflammatory cells [4]; Study 1G: day +1 treatment,no significant differences
same,BAL neutrophils,"BAL inflammatory cells [4]; Study 1G: day +1 treatment, listed as Peg-S-Pam2Cys",drastically increases neutrophil numbers in BAL; also recorded: increasing neutrophil recruitment
same,TNF-α in BAL,"TNFα; Study 1E: day −7, listed as Peg-S-Pam2Cys",not increased by any of the compounds; also recorded: lack of induction of TNFα
same,TNF-α in BAL,"TNFα; Study 1F: 2 pmol, all groups",did not induce TNF-α in any of the groups
same,TNF-α in BAL,TNFα; Study 1G: 10-1 pmol day +1,dose dependent upon drug treatment
same,TNF-α in BAL,TNFα; [9],not increased by the lowest doses; also recorded: no significant increase in KC or TNFα
same,RV-induced expression of CXCL1,"CXCL1 [5]; Study 1E(ii): INNA-011 and INNA-006 comparison, day −7",reduced RV-induced expression of CXCL1
same,CXCL1 in BAL,CXCL1 [5]; Study 1E: 10 pmol and 5 pmol dose day −7,effectively reduced CXCL1 levels
same,CXCL1 in BAL,"CXCL1 [5]; Study 1F: 2 pmol day −1, RV1B, listed as Peg-S-Pam2Cys",CXCL1 production was only increased; also recorded: significantly increased in mice treated one day prior to infection
same,CXCL1 / lung inflammation after day −1 dose with prior day −7 dose,"CXCL1 [5]; Study 1F: 2 pmol day −7 and day −1, listed as Peg-S-Pam2Cys",protected from lung inflammation; also recorded: completely abolished
same,CXCL1 in BAL,CXCL1 [5]; Study 1G: 10-1 pmol day +1,dose dependent upon drug treatment
same,CXCL1 (KC) in BAL,CXCL1 [5]; [9],not increased by the lowest doses; also recorded: no significant increase in KC or TNFα
same,reduction of RV infection (lung RV copy number),[6]; Study 1E: 10 pmol day −7,86.76%
same,anti-viral efficacy relative to Pam2CysSK4,"[6]; Study 1E: 10 pmol dose day −7, listed as Peg-S-Pam2Cys",better anti-viral efficacy compared to Pam2CysSK4
same,dose dependence of RV suppression,[6]; Study 1E: 1-10 pmol day −7,appeared to be dose dependant
same,RV copy number in lung,"[6]; Study 1E: every dose 1-10 pmol day −7, day 2 p.i.",significant reduction in RV infection
same,"viral clearance, day −7 + day −1 versus day −7 only",[6]; Study 1F: 2 pmol,enhanced viral clearance compared to mice dose only on day 7
same,reduced viral RNA,[6]; Study 1F: single treatment at day −7,70%
same,reduction in viral RNA,[6]; Study 1F: treatment at both days −7 and −1,approx. 90%
same,RV copy numbers in lung,"[6]; Study 1G: 10, 5, 2, 1 pmol 1 day post-infection, day 2 p.i.",reduces RV1B copy numbers in the lung
same,lung viral load,[6]; Study 1G: doses 5 pmole per mouse and lower,significant reduction in lung viral load
same,lung viral load,[6]; Study 1G: highest dose 10 pmole per mouse,less effective and not significant
same,activation of TLR-2 (SEAP reporter),TLR-2,able to activate its proposed target (TLR-2)
same,"RV-induced, steroid resistant neutrophilic inflammation","BAL inflammatory cells [7]; 2 pmol, all treatment protocols, with or without FP",prevented RV-induced and steroid resistant neutrophilic inflammation; also recorded: completely ameliorated RV-induced and steroid resistant neutrophilic inflammatory response; also recorded: complete suppression of RV-induced steroid resistant neutrophilic inflammation
same,BAL macrophages and lymphocytes,BAL inflammatory cells [7]; D-7 INNA-006 2 pmol with FP,increased macrophages and lymphocytes when given in conjunction with FP
same,BAL macrophages and lymphocytes,BAL inflammatory cells [7]; combined D-7 & D-1 INNA-006 2 pmol,increased macrophages and lymphocytes in BAL
same,BAL macrophages,BAL inflammatory cells [7]; combined D-7 & D-1 INNA-006 in FP treated mice,Increased Macrophages
same,total BAL leukocyte numbers,BAL inflammatory cells [7]; repeated 2 pmol INNA-006 (day −7 & day −1),increased total leukocyte numbers
same,reduction of viral RNA levels,RV1B,approximately 50%
same,viral lung load,"[8]; 2 pmol INNA-006, both treatment protocols, all groups",reduced virus lung load in all groups; also recorded: significant reduction in viral load with both treatment protocols
same,viral lung load / antiviral efficacy,[8]; repeated INNA-006 (D-7 & D-1) with FP,antiviral efficacy of repeated INNA-006 treatment was enhanced by FP; also recorded: best suppression of viral lung RNA

# Reference: US20200147028A1, “TREATMENT OF RESPIRATORY INFECTION WITH A TLR2 AGONIST” (Ena Therapeutics Pty Ltd, priority 2017, published 2020)
